In patent publication US10308926B2, “Stablized EZH2 peptides” (DANA-FARBER CANCER INSTITUTE, INC., priority 2013, dated 2019):
Bridges are numbered along the chain shown (N, C = ends). Where no end group is shown, it is not given here. [ ]: non-standard residue; d: D form. S5 = C=CCCC[C@](C)(N)C(=O)O; Nle = CCCC[C@H](N)C(=O)O

What was measured:
HA-EED = biological target: T1, HA-EED (Homo sapiens, UniProt O75530); experiment: Anti-FITC pull down of HA-EED by FITC-SAH-EZH2 peptides; format: binding; conditions: HA-EED 40 nM
T1 construct: made in house; host or cells: Sf21 insect cells
T1 sequence (O75530 whole entry): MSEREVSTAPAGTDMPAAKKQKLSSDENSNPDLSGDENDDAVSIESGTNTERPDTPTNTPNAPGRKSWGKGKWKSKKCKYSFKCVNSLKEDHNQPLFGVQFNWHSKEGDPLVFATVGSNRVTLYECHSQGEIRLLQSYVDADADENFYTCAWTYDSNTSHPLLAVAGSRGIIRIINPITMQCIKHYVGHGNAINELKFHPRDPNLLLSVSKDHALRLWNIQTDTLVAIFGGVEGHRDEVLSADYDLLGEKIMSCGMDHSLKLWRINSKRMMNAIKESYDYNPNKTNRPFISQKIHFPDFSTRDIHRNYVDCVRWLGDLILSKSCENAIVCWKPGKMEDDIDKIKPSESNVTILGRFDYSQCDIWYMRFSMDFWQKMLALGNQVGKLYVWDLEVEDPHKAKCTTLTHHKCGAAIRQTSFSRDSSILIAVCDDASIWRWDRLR
Description: (§1) [formula] y: Fluorescence polarization, X: Receptor concentration, L: Ligand concentration AF: Minimum value of y, AB: Maximum value of y For anti-FITC pull down-based binding assays, HA-EED was produced in Sf21 cells as described in Shen et al.^29,46. FITC-SAH-EZH2 peptides (final concentration, 50, 10, and 2 nM) were mixed with 2 μl, 0.5 μl and 0.2 μl of anti-FITC antibody (Abcam, 1 mg/ml) respectively, and incubated with 30 μl of protein G agarose (Roche) in 400 μl binding buffer (pH 8.0, 20 mM Tris-HCl, 150 mM NaCl, 0.3% NP40, 10% glycerol). After successive washes, HA-EED (final concentration of 40 nM each tube) was added and incubated for 3 h, followed by detection of HA-EED bound to FITC-SAH-EZH2 peptides by anti-HA (Santa Cruz Biotechnology) western analysis. Detection of FITC-SAH-EZH2 peptides was accomplished by fluorescence scan (GE Healthcare Life Sciences, Typhoon 9200).

EED [1] = biological target: T2, EED (Homo sapiens, UniProt O75530); experiment: Fluorescence polarization binding of FITC-labeled SAH-EZH2 peptides to EED; conditions: FITC-peptide 25 nM; His-EED 25 nM-8 μM
T2 construct: His (C); made in house; host or cells: Escherichia coli BL21(DE3)
T2 sequence (O75530 whole entry, species assumed): as the sequence (O75530 whole entry) above
Description: SAH-EZH2/EED Binding Analyses: For fluorescence polarization binding analysis, C-terminal His-tagged EED (His-EED) was expressed in Escherichia coli BL21(DE3) using 0.3 mM IPTG for 6 h at room temperature. Bacterial pellet lysate was loaded onto a Ni-NTA column (Novagen) for purification of His-EED. Fluorescinated stapled peptides (final concentration, 25 nM) were incubated with His-EED (serial dilution range, 25 nM-8 μM) at room temperature until equilibrium was reached (˜15 min) Binding activity was measured by fluorescence polarization on a Perkin-Elmer LS50B luminescence 5 spectrophotometer. KD values were determined by following equation,
as §1

32D = experiment: Viability assay on EZH2-independent cell line 32D; format: cell-based; conditions: EZH2-independent (non-leukemic)
Source text: (§2) To compare the functional and mechanism-based cellular activities of SAH-EZH2 and GSK126, a small molecule inhibitor of EZH2 enzymatic activity (McCabe et al. Nature, 492: 108-112, 2012), we conducted viability assays on the EZH2-dependent cell line MLL-AF9 and the EZH2-independent (non-leukemic) cell line 32D. […] We next compared the effects of SAH-EZH2 and GSK126 on lineage specific surface marker expression in MLL-AF9 cells. […] Given the distinct mechanisms of action of SAH-EZH2 and GSK126, we explored whether co-administration of the two compounds would enhance the anti-leukemic effects. […] Thus, SAH-EZH2 manifests a unique mechanism of action by targeting EED, dissociating the EZH2/EED complex, and thereby reduces EZH2 protein levels. As a result, the H3K27Me3 mark is reduced over time and PRC2 transcriptional effects are inhibited, leading to anti-proliferative and induced-differentiation effects on EZH2-dependent leukemia cells.

CD133 = CD133 expression in MLL-AF9 cells; format: cell-based, mouse; conditions: MLL-AF9, 8 days of treatment
MLL-AF9 = experiment: Viability assay on EZH2-dependent cell line MLL-AF9; format: cell-based, mouse
Source text: as §2

Ace1, Adam8 and Fcer1a = experiment: Real time qPCR of macrophage/monocyte lineage-specific markers in MLL-AF9 cells; format: cell-based, mouse; conditions: MLL-AF9, 8 days
EED [2] = biological target: T2, EED; experiment: Competitive fluorescence polarization: displacement of FITC-labeled EZH2(42-68) peptide from EED; format: binding; conditions: N-terminal acetylated peptides; EED 200 nM, FITC-peptide 20 nM, 30 min
Description: The EED binding affinities of SAH-EZH2 and SAH-EZH2(42-68)AC were assessed by their capacities to displace FITC-labeled EZH2(42-68) peptide from EED. Serially diluted acetyl-SAH-EZH2 and the doubly stapled acetyl-SAH-EZH2(42-68)AC (dose range from 2.5 nM to 10 μIM) were incubated with purified EED (200 nM) and FITC-labeled EZH2(42-68) peptide (20 nM) for 30 min, followed by measurement of fluorescence polarization. […] The non-binding EZH2(47-64) construct was used as a negative control.

[3] = system: MDA-MB231 breast cancer cells; experiment: Viability of MDA-MB231 breast cancer cells; format: cell-based; conditions: 8 days, once every other day
Source text: (§3) To compare the functional and mechanism-based cellular activities of SAH-EZH2 and GSK126, a small molecule inhibitor of EZH2 enzymatic activity (McCabe et al. Nature, 492: 108-112, 2012), we conducted viability assays on the EZH2-dependent cell line MLL-AF9 and the EZH2-independent (non-leukemic) cell line 32D. […] We next compared the effects of SAH-EZH2 and GSK126 on lineage specific surface marker expression in MLL-AF9 cells. […] Given the distinct mechanisms of action of SAH-EZH2 and GSK126, we explored whether co-administration of the two compounds would enhance the anti-leukemic effects. […]
(§4) To test the anti-proliferative effect of SAH-EZH2(42-68)AC, breast (MDA-MB231) and prostate (DU145) cancer cell lines were treated with SAH-EZH2(42-68)AC at the indicated doses for 8 days and measured for viability by Cell Titer Glo®SAH-EZH2(42-68)AC was added to the culture medium once every other day. […] The cells were treated with SAH-EZH2(42-68)AC at the indicated doses for 6 days on an every other day schedule and then measured for viability using Cell Titer Glo®. […] To test the anti-proliferative effect on chronic myelogenous leukemia, SAH-EZH2(42-68)AC was added to K562 cells at 10 μM every other day and viability was measured at days 2, 4, 6, and 10 using Cell Titer Glo®. […]

LNCaP cells = experiment: Viability of androgen-dependent LNCaP cells, Cell Titer Glo; format: cell-based; conditions: every other day
Description: (§5) To test the anti-proliferative effect of SAH-EZH2(42-68)AC, breast (MDA-MB231) and prostate (DU145) cancer cell lines were treated with SAH-EZH2(42-68)AC at the indicated doses for 8 days and measured for viability by Cell Titer Glo®SAH-EZH2(42-68)AC was added to the culture medium once every other day. […] We further tested the anti-proliferative effects of SAH-EZH2(42-68)AC on a Ewing Sarcoma cell line (TC71) and neuroblastoma cell line (Kelly). The cells were treated with SAH-EZH2(42-68)AC at the indicated doses for 6 days on an every other day schedule and then measured for viability using Cell Titer Glo®. […] To test the anti-proliferative effect on chronic myelogenous leukemia, SAH-EZH2(42-68)AC was added to K562 cells at 10 μM every other day and viability was measured at days 2, 4, 6, and 10 using Cell Titer Glo®. […] To assess the anti-proliferative effects of SAH-EZH2(42-68)AC on androgen-dependent and advanced androgen-independent prostate cancer, SAH-EZH2(42-68)AC was added to cell culture every other day at the indicated doses and viability measured using Cell Titer Glo®.

[4] = system: DU145 prostate cancer cells; experiment: Viability of DU145 prostate cancer cells; format: cell-based; conditions: 8 days, once every other day
Source text: as §3, §4

22Rv1 = experiment: Viability of androgen independent prostate cancer cells 22Rv1, Cell Titer Glo; format: cell-based; conditions: 22Rv1, every other day; read-out: IC50 for growth
Description: as §5

K562 cells = experiment: Viability of K562 chronic myelogenous leukemia cells, Cell Titer Glo; format: cell-based; conditions: 10 μM every other day; days 2, 4, 6 and 10
Description: as §5

Abl = experiment: Viability of androgen independent prostate cancer cells Abl, Cell Titer Glo; format: cell-based; conditions: every other day, read-out: IC50 for growth
Description: as §5

Kelly = experiment: Viability of neuroblastoma cell line Kelly, Cell Titer Glo; format: cell-based; conditions: 6 days, every other day
Description: as §5

TC71 = experiment: Viability of Ewing Sarcoma cell line TC71, Cell Titer Glo; format: cell-based; conditions: 6 days, every other day
Description: as §5

MLL-AF9 leukemia cells = experiment: Apoptosis by Annexin V/7-AAD flow cytometry; format: cell-based, mouse; conditions: positive control, 2 μM, 48 h
Description: Cell Proliferation, Apoptosis, and Cell Cycle Analyses: To monitor the effect of SAH-EZH2 peptides on cell proliferation, MLL-AF9 cells were seeded in 48 well plates at densities of 2×10^5 cells per well in 150 μl of AF9 media and treated with SAH-EZH2 peptides (10 μM) twice daily. Cells were counted every other day using a hematocytometer. To evaluate apoptosis induction, the cells were stained with Annexin V5-PE and 7-AAD after 8 or 16 days of treatment with SAH-EZH2 peptides. Camptothecin (Biovision) was used as a positive control (2 μM, 48 h). Cells were analyzed using a BD FACScaliber and data was processed using Flowjo software. For cell cycle analysis, cells were stained with propidium iodide (BD Biosciences) after 4 or 8 days of treatment with SAH-EZH2 peptides. Cells were analyzed using a BD FACSCalibur and data processed using Modfit software.

Compound: SAH-EZH2B(42-64): foreshortened stapled EZH2(42-64) peptide with the B-positioned staple; probably position 'C' of FIG. 2, SEQ ID NO: 20 (FSSNRQKILERT[S5]ILN[S5]EWKQRR; staple 13-17)
- Engagement of HA-EED by anti-FITC pull down (HA-EED): no appreciable engagement
- EED-binding activity by fluorescence polarization (EED [1]): no appreciable engagement

Compound: CC[C@H](C)n1cc(C)c2c(C(=O)NCc3c(C)cc(C)[nH]c3=O)cc(-c3ccc(N4CCNCC4)nc3)cc21 [GSK126]
- Viability of 32D cells (32D): decreased the viability
- Expression of CD133 (CD133): decreased the expression
- Viability of MLL-AF9 cells (MLL-AF9): decreased the viability
- Expression of macrophage lineage-specific markers (Ace1, Adam8 and Fcer1a): increase expression of Fcerla

Compound: QKILERTEILNQEWKQRR (SEQ ID NO: 11) [EZH2(47-64), reference compound]
- Displacement of FITC-labeled EZH2(42-68) peptide from EED (EED [2]): non-binding

Compound: FSSNRXKILXRTXILNXEWKQRRIQPV (SEQ ID NO:56) (FSSNR[S5]KIL[S5]RT[S5]ILN[S5]EWKQRRIQPV; staple 6-10, 13-17) [SAH-EZH2(42-68)AC]
- Anti-proliferative effect on MDA-MB231 [3]: enhanced dose-dependent anti-proliferative effects compared to SAH-EZH2 treatment
- Anti-proliferative activity on LNCaP (LNCaP cells): anti-proliferative activity in each case
- Displacement of FITC-labeled EZH2(42-68) peptide from EED (EED [2]): two times more efficiently than SAH-EZH2
- Anti-proliferative effect on DU145 [4]: enhanced dose-dependent anti-proliferative effects compared to SAH-EZH2 treatment
- IC50 (22Rv1): < 1000 nM
- Proliferation of K562 cells (K562 cells): decreased proliferation of K562 cells in a dose-responsive manner
- IC50 (Abl): < 1000 nM
- Anti-proliferative effect on Kelly (Kelly): noticeable anti-proliferative effects
- Anti-proliferative effect on TC71 (TC71): noticeable anti-proliferative effects

Compound: FSSNRXKILXRTEILNQEWKQRR (SEQ ID NO: 19) (FSSNR[S5]KIL[S5]RTEILNQEWKQRR; staple 6-10) [SAH-EZH2A(42-64)]
- Engagement of HA-EED by anti-FITC pull down (HA-EED): no appreciable engagement
- EED-binding activity by fluorescence polarization (EED [1]): no appreciable engagement

Compound: SAH-EZH2B(40-68): stapled EZH2(40-68) peptide with the B-positioned staple; probably position 'C' (54-58) of FIG. 2, SEQ ID NO: 5 (S[Nle]FSSNRQKILERT[S5]ILN[S5]EWKQRRIQPV; staple 15-19)
- EED-binding activity by fluorescence polarization (EED [1]): most potent dose-responsive EED-binding activities

Compound: CC[C@@]1(O)C(=O)OCc2c1cc1n(c2=O)Cc2cc3ccccc3nc2-1 [camptothecin]
- Apoptotic effect (MLL-AF9 leukemia cells): robust apoptotic effect

Compound: SBFSSNRXKILXRTEILNQEWKQRRIQPV (SEQ ID NO: 3) (S[Nle]FSSNR[S5]KIL[S5]RTEILNQEWKQRRIQPV; staple 8-12) [SAH-EZH2A(40-68)]
- EED-binding activity by fluorescence polarization (EED [1]): most potent dose-responsive EED-binding activities
